Holding throughout (type): cell-based
The subject of one test is Phospho-Rb (Ser807/811). The experiment in a line: Phospho-Retinoblastoma (pRB) Cellular Assay. The conditions noted are these: Homo sapiens, OVCAR-3, NIH OVCAR3 cells, 24 hours; for IC50: concentration giving 50% response; for Emax: maximum response, reference compound at 10 μM = 100%, read-out: pRB Ymax. In short, it runs like this: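 Phospho-Rb (Ser807/811) kit read-out on EnVision after lysis (≥4 h, room temperature, dark) of OVCAR3 cells exposed to compound dilutions for 24 h. IC50 and maximum response Ymax are relative to a 10 μM reference compound defining 100%.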

Another test deals with GSPT1 (Homo sapiens, UniProt P15170+Q96SW2). The experiment in a line: GSPT1 Cellular Degradation Assay (DF15-GSPT1-ePL). Further details: expressed in transfected cells. The following applies: DF15-GSPT1-ePL cells, 20 hours. An outline of the steps:
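DC50 and Dmax were derived from chemiluminescence, with 75% response set by the reference compound at […]. Readout was ePL enzyme-fragment complementation in a DF15 line expressing chimeric GSPT1. Cells were exposed to compound for 20 h at 37 °C in RPMI 1640 with 10% FBS, cooled 30 min, then lysed with substrate for 60 min.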

The next test deals with Cyclin E1 (Homo sapiens, UniProt P24864+Q96SW2). The experiment in a line: Cyclin E1 Cellular Degradation Assay (MSD). Further details: endogenous in cells; host or cells: OVCAR3. The following applies: for DC50 / Dmax: Cyclin E1 cellular degradation; for Dmax: maximum degradation; for Ratio of GSPT1 DC50/Cyclin E1 DC50: selectivity for degradation of Cyclin E1 over GSPT1. An outline of the steps: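 Cyclin E1 remaining after 24 h compound exposure of OVCAR3 cells was quantified in lysates by electrochemiluminescent MSD sandwich assay. DC50 (50% response concentration) and Dmax (maximum response) were calculated, with 110% response set by a reference compound at […].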

SMILES strings stand for the structures. A value given as a limit tells only on which side of the number the result lay.

GSPT1, sequence (P15170 whole entry, the tested form may be a part): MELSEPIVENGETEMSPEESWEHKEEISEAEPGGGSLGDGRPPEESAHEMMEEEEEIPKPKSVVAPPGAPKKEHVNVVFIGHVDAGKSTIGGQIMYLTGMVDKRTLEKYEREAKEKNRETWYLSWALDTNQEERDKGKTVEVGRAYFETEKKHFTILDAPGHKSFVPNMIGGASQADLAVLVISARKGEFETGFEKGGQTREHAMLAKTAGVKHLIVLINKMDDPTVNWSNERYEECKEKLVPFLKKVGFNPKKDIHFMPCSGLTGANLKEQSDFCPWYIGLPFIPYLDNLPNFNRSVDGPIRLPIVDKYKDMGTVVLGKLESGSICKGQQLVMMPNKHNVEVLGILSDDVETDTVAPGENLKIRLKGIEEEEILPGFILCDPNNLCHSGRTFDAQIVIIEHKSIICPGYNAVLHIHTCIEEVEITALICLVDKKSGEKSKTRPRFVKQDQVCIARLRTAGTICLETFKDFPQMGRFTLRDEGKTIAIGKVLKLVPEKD
GSPT1, sequence (Q96SW2 whole entry, the tested form may be a part): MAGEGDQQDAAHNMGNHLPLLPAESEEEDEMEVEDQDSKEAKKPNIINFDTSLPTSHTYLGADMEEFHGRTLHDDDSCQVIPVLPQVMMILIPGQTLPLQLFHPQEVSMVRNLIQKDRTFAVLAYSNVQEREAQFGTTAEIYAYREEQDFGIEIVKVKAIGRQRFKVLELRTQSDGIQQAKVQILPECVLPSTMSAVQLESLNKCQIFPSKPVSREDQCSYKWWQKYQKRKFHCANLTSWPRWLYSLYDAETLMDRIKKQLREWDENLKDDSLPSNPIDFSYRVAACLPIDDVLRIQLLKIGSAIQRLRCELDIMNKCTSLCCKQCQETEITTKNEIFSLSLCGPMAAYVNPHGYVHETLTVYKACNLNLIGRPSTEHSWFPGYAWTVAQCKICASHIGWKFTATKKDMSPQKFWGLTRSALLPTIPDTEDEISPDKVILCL
GSPT1, sequence (Q16531 whole entry partner, the tested form may be a part): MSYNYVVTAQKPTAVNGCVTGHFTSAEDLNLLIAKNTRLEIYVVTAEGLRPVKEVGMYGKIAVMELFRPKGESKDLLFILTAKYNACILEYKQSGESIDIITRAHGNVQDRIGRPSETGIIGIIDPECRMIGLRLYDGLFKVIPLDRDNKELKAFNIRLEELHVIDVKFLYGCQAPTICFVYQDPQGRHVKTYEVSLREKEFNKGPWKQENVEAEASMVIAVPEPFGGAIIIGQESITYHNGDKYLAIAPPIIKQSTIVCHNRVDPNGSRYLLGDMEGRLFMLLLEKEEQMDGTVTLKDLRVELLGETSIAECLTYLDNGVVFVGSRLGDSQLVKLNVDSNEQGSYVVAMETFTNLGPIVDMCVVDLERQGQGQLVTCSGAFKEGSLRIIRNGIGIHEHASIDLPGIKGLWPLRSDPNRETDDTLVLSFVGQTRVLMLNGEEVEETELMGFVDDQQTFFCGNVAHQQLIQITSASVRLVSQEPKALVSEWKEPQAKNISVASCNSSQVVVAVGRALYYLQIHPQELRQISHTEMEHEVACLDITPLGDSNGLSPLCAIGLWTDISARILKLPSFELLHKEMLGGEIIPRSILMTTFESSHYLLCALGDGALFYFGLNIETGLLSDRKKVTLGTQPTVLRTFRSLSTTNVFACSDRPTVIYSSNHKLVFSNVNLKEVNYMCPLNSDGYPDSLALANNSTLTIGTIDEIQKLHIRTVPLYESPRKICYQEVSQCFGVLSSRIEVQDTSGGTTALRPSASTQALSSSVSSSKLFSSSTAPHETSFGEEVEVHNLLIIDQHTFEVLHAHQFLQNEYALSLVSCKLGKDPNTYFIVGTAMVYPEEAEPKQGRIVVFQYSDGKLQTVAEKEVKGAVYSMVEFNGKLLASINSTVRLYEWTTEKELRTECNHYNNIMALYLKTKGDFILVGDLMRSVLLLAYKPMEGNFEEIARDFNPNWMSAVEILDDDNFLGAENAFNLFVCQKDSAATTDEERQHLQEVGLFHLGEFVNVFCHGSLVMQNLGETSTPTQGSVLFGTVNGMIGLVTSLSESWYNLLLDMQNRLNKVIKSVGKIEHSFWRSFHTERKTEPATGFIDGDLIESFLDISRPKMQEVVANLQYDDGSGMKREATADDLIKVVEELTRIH
Cyclin E1, sequence (P24864 whole entry): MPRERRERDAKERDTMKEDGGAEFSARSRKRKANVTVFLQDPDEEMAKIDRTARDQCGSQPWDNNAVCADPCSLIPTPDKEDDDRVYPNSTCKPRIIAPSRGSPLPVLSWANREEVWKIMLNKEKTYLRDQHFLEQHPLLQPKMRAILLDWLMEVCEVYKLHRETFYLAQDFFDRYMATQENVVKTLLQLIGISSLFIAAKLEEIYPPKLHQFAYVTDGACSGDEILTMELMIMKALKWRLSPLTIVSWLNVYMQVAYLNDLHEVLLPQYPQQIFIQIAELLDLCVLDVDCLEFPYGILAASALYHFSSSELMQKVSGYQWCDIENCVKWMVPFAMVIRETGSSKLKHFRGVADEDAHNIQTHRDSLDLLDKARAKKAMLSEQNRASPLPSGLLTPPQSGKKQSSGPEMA
Cyclin E1, sequence (Q96SW2 whole entry): as the sequence (Q96SW2 whole entry, the tested form may be a part) above
Cyclin E1, sequence (Q16531 whole entry partner): as the sequence (Q16531 whole entry partner, the tested form may be a part) above

Usually IC50 stands for the point on the concentration scale where inhibition reaches its midpoint. A high value points to weaker potency. As a reminder, the DC50 is the concentration giving 50% degradation. Low readings indicate a more potent degrader, high ones a less potent degrader. The term Dmax denotes the greatest extent of degradation seen. With `O=C1CCC(N2Cc3ccc(COC(=O)Nc4ccc(Oc5ccc(F)c(F)c5)cc4F)c(O[C@@H]4CCCOC4)c3C2=O)C(=O)N1` (stereo partly drawn) [Example 146, [2-(2,6-dioxopiperidin-3-yl)-4-[(3R)-oxan-3-yloxy]-3-oxo-2,3-dihydro-1H-isoindol-5-yl]methyl N-[4-(3,4-difluorophenoxy)-2-fluorophenyl]carbamate], in the test on Phospho-Rb (Ser807/811), 38 nM corresponded to half-maximal inhibition (IC50) and the Emax was determined as 133%. Also, on GSPT1, the DC50 was more than 14000 nM and the Dmax was found to be 8%. In addition, on Cyclin E1, the DC50 was 47 nM, the Dmax was 112% and the “Ratio of GSPT1 DC50/Cyclin E1 DC50” value is on record as more than 296.

Consider `COc1c(COC(=O)Nc2ccc(Oc3cccc(Cl)c3Cl)cc2F)ccc2c1C(=O)N(C1CCC(=O)NC1=O)C2` (centres unmarked) [Example 116, [2-(2,6-dioxopiperidin-3-yl)-4-methoxy-3-oxo-2,3-dihydro-1H-isoindol-5-yl]methyl N-[4-(2,3-dichlorophenoxy)-2-fluorophenyl]carbamate], for which, in the test with Phospho-Rb (Ser807/811), the IC50 was 73 nM and the Emax was determined as 107%. Further, on GSPT1, the DC50 is more than 14000 nM and the Dmax was 43%. In addition, on Cyclin E1, the DC50 worked out at 87 nM, the Dmax worked out at 110% and the “Ratio of GSPT1 DC50/Cyclin E1 DC50” value is reported as more than 160.

Turning to `COc1c(COC(=O)Nc2ccc(Oc3cc(Cl)cc(Cl)c3)cc2F)ccc2c1C(=O)N(C1CCC(=O)NC1=O)C2` (centres unmarked) [Example 118, [2-(2,6-dioxopiperidin-3-yl)-4-methoxy-3-oxo-2,3-dihydro-1H-isoindol-5-yl]methyl N-[4-(3,5-dichlorophenoxy)-2-fluorophenyl]carbamate], in the test on Phospho-Rb (Ser807/811), the IC50 is 299 nM and the Emax turned out to be 105%. At GSPT1, the DC50 is more than 14000 nM and the Dmax stood at 24%. At Cyclin E1, the DC50 worked out at 417 nM, the Dmax was 96% and the “Ratio of GSPT1 DC50/Cyclin E1 DC50” value is recorded as more than 34.

As to `COc1c(COC(=O)Nc2ccc(Oc3ccccc3C(F)(F)F)cc2Cl)ccc2c1C(=O)N(C1CCC(=O)NC1=O)C2` (centres unmarked) [Example 90, [2-(2,6-dioxopiperidin-3-yl)-4-methoxy-3-oxo-2,3-dihydro-1H-isoindol-5-yl]methyl N-{2-chloro-4-[2-(trifluoromethyl)phenoxy]phenyl}carbamate], in the test with Phospho-Rb (Ser807/811), the IC50 worked out at 479 nM and the Emax turned out to be 103%. At GSPT1, the half-maximal degradation concentration (DC50) was more than 14000 nM and the Dmax was 10%. Further, at Cyclin E1, the DC50 worked out at 200 nM, the Dmax stood at 100% and the “Ratio of GSPT1 DC50/Cyclin E1 DC50” value is listed as more than 70.

Regarding `O=C1CCC(N2Cc3ccc(COC(=O)Nc4ccc(Oc5ccc(F)c(F)c5)cc4F)c(O[C@@H]4CCOC4)c3C2=O)C(=O)N1` (stereo partly drawn) [Example 154, [2-(2,6-dioxopiperidin-3-yl)-3-oxo-4-[(3R)-oxolan-3-yloxy]-2,3-dihydro-1H-isoindol-5-yl]methyl N-[4-(3,4-difluorophenoxy)-2-fluorophenyl]carbamate], in the test with Phospho-Rb (Ser807/811), it took 225 nM to reach half-maximal inhibition (IC50) and the Emax is 123%. Moreover, at GSPT1, the DC50 is more than 14000 nM and the Dmax came to 26%. In addition, on Cyclin E1, the DC50 is 147 nM, the Dmax worked out at 100% and the “Ratio of GSPT1 DC50/Cyclin E1 DC50” value is given as more than 95.

On to `COc1c(COC(=O)Nc2ccc(Oc3cc(F)c(F)cc3C)cc2F)ccc2c1C(=O)N(C1CCC(=O)NC1=O)C2` (centres unmarked) [Example 94, [2-(2,6-dioxopiperidin-3-yl)-4-methoxy-3-oxo-2,3-dihydro-1H-isoindol-5-yl]methyl N-[4-(4,5-difluoro-2-methylphenoxy)-2-fluorophenyl]carbamate], for which, in the test on Phospho-Rb (Ser807/811), the 50% inhibitory concentration (IC50) was determined as 287 nM and the Emax amounted to 107%. Besides, at GSPT1, the DC50 was more than 14000 nM and the Dmax amounted to 25%. On Cyclin E1, half-maximal degradation (DC50) was put at 198 nM, the Dmax was 106% and the “Ratio of GSPT1 DC50/Cyclin E1 DC50” value was more than 71.

For the compound `O=C1CCC(N2Cc3ccc(COC(=O)Nc4ccc(Oc5ccccc5)cc4)c(OC4CCOCC4)c3C2=O)C(=O)N1` (centres unmarked) [Example 134, [2-(2,6-dioxopiperidin-3-yl)-4-(oxan-4-yloxy)-3-oxo-2,3-dihydro-1H-isoindol-5-yl]methyl N-(4-phenoxyphenyl)carbamate], in the test on Phospho-Rb (Ser807/811), the IC50 was 14 nM and the Emax was found to be 144%. On GSPT1, the DC50 is more than 14000 nM and the Dmax was 0%. Also, on Cyclin E1, the DC50 was 13 nM, the Dmax stood at 107% and the “Ratio of GSPT1 DC50/Cyclin E1 DC50” value is on record as >1,066.

For the compound `COc1c(COC(=O)Nc2ccc(Oc3cc(F)c(F)cc3C)cc2C)ccc2c1C(=O)N(C1CCC(=O)NC1=O)C2` (centres unmarked) [Example 74, [2-(2,6-dioxopiperidin-3-yl)-4-methoxy-3-oxo-2,3-dihydro-1H-isoindol-5-yl]methyl N-[4-(4,5-difluoro-2-methylphenoxy)-2-methylphenyl]carbamate], in the test on Phospho-Rb (Ser807/811), the IC50 was 53 nM and the Emax worked out at 116%. Moreover, on GSPT1, the 50% degradation concentration (DC50) is more than 14000 nM and the Dmax came to 37%. On Cyclin E1, the DC50 amounted to 222 nM, the Dmax was 111% and the “Ratio of GSPT1 DC50/Cyclin E1 DC50” value was more than 63.

Take `COc1cc(Oc2ccc(F)cc2)ccc1NC(=O)OCc1ccc2c(c1OC)C(=O)N(C1CCC(=O)NC1=O)C2` (centres unmarked) [Example 37, [2-(2,6-dioxopiperidin-3-yl)-4-methoxy-3-oxo-2,3-dihydro-1H-isoindol-5-yl]methyl N-[4-(4-fluorophenoxy)-2-methoxyphenyl]carbamate]: in the test on Phospho-Rb (Ser807/811), the IC50 was found to be 289 nM and the Emax amounted to 111%. At GSPT1, the DC50 is more than 14000 nM and the Dmax is 28%. Also, on Cyclin E1, it took 107 nM to reach half-maximal degradation (DC50), the Dmax was determined as 102% and the “Ratio of GSPT1 DC50/Cyclin E1 DC50” value is on record as more than 131.

With `COc1c(COC(=O)Nc2ccc(Oc3ccc(F)c(F)c3)cc2)ccc2c1C(=O)N([C@@H]1CCC(=O)NC1=O)C2` (single isomer, unassigned) [Example 36], in the test with Phospho-Rb (Ser807/811), the IC50 stood at 339 nM and the Emax came out at 98%. On GSPT1, the DC50 is more than 14000 nM and the Dmax turned out to be 28%. Also, on Cyclin E1, the DC50 was 257 nM, the Dmax is 108% and the “Ratio of GSPT1 DC50/Cyclin E1 DC50” value is recorded as more than 54.

With `CC(C)Oc1c(COC(=O)Nc2ccc(Oc3ccccc3F)cc2)ccc2c1C(=O)N(C1CCC(=O)NC1=O)C2` (centres unmarked) [Example 121, [2-(2,6-dioxopiperidin-3-yl)-3-oxo-4-(propan-2-yloxy)-2,3-dihydro-1H-isoindol-5-yl]methyl N-[4-(2-fluorophenoxy)phenyl]carbamate], in the test with Phospho-Rb (Ser807/811), the IC50 turned out to be 40 nM and the Emax came to 125%. In addition, at GSPT1, the DC50 is more than 14000 nM and the Dmax is 9%. On Cyclin E1, half-maximal degradation (DC50) was put at 53 nM, the Dmax is 107% and the “Ratio of GSPT1 DC50/Cyclin E1 DC50” value is reported as more than 263.

Turning to `O=C1CCC(N2Cc3ccc(COC(=O)Nc4ccc(Oc5ccc(F)c(F)c5)cc4)c(O[C@H]4CC[C@@H](O)CC4)c3C2=O)C(=O)N1` (stereo partly drawn) [Example 167, [2-(2,6-dioxopiperidin-3-yl)-3-oxo-4-{[(1S,4S)-4-hydroxycyclohexyl]oxy}-2,3-dihydro-1H-isoindol-5-yl]methyl N-[4-(3,4-difluorophenoxy)phenyl]carbamate], in the test on Phospho-Rb (Ser807/811), half-maximal inhibition (IC50) required 8 nM and the Emax amounted to 148%. For the same compound, on GSPT1, the DC50 was more than 14000 nM and the Dmax amounted to 6%. Also, on Cyclin E1, half-maximal degradation (DC50) was put at 13 nM, the Dmax was determined as 111% and the “Ratio of GSPT1 DC50/Cyclin E1 DC50” value is listed as >1,042.

Regarding `CCN(C)C(=O)COc1c(COC(=O)Nc2ccc(Oc3ccc(F)c(F)c3)cc2)ccc2c1C(=O)N(C1CCC(=O)NC1=O)C2` (centres unmarked) [Example 177, [2-(2,6-dioxopiperidin-3-yl)-4-{[ethyl(methyl)carbamoyl]methoxy}-3-oxo-2,3-dihydro-1H-isoindol-5-yl]methyl N-[4-(3,4-difluorophenoxy)phenyl]carbamate], in the test on Phospho-Rb (Ser807/811), the IC50 was determined as 161 nM and the Emax was determined as 126%. Besides, at GSPT1, the DC50 was more than 14000 nM and the Dmax worked out at 0%. Besides, on Cyclin E1, the DC50 was 299 nM, the Dmax came to 108% and the “Ratio of GSPT1 DC50/Cyclin E1 DC50” value is recorded as more than 47.

For the compound `NC(=O)COc1c(COC(=O)Nc2ccc(Oc3ccc(F)c(F)c3)cc2)ccc2c1C(=O)N(C1CCC(=O)NC1=O)C2` (centres unmarked) [Example 176, [4-(carbamoylmethoxy)-2-(2,6-dioxopiperidin-3-yl)-3-oxo-2,3-dihydro-1H-isoindol-5-yl]methyl N-[4-(3,4-difluorophenoxy)phenyl]carbamate], in the test on Phospho-Rb (Ser807/811), the IC50 turned out to be 44 nM and the Emax is 112%. Besides, on GSPT1, the DC50 is more than 14000 nM and the Dmax was 20%. Further, on Cyclin E1, the DC50 worked out at 179 nM, the Dmax was found to be 101% and the “Ratio of GSPT1 DC50/Cyclin E1 DC50” value is more than 78.
